Source: patent US20120136066A1, “Glomerulonephritis Treatment” (AVEXXIN AS, priority 2009, published 2012)

How the values were obtained:
[1] = system: IIA-sPLA2; assay: IIA-sPLA2 protein expression and secretion, Western blot of supernatants; assay type: cell-based, rat; conditions: mesangial cells, IL-1β (1 nM), FIG. 2A
Method: (§1) Quiescent cells were stimulated with either DMEM (−), or IL-1β (1 nM) in the absence (−) or presence of AKH-217 (etOH), vehicle control. • (A) Supernatants were taken for protein precipitation and precipitated proteins were separated by SDS-PAGE and subjected to a Western blot analysis using a monoclonal antibody against rat sPLA2. […] Cells were taken for RNA extraction and subjected to quantitative PCR analysis of rat IIA-sPLA2 and 18 S RNA. ΔΔCt values were calculated and results are expressed as % of maximal IL-1β-stimulated response and are means±S.D. (n=3). • (C) Cells were transfected with the sPLA2 promoter construct plus a plasmid coding for the Renilla luciferase. After transfection, cells were stimulated for 24 h with vehicle (−), IL-1β (1 nM), or IL-1β plus 10 μM of AKH-217. sPLA2 promoter activity was calculated and results are expressed as relative luciferase units (RLU) and are means±S.D. (n=3).
(§2) It has been previously shown that the cytokine-induced PGE2 formation in mesangial cells involves both sPLA2 and cPLA2 activation (Pfeilschifter et al., 1993), we then investigated the effect of the inhibitors above on sPLA2 protein and mRNA expressions. […] This effect on sPLA2 mRNA expression was due to a reducing effect on gene transcription. This was shown by a luciferase reporter gene assay that reflected sPLA2 promoter activity.

[2] = system: rat IIA-sPLA2 promoter; assay: sPLA2 promoter activity, luciferase reporter gene assay; assay type: cell-based; conditions: IL-1β (1 nM), 24 h, 10 μM compound, FIG. 2C
Method: as §1
as §2, with “activity. […]” for “activity.”

[3] = system: iNOS; assay: iNOS protein expression, Western blot; assay type: cell-based, rat; conditions: mesangial cells, IL-1β (1 nM), FIG. 4A
Method: (§3) Quiescent cells were stimulated with either vehicle (DMEM), IL-1β (1 nM), in the absence (−) or presence of the indicated concentrations (in μM) of AVX001 and AVX002. EtOH, vehicle control.(A) Cells were taken for protein extraction and equal amount of protein were separated by SDS-PAGE and subjected to a Western blot analysis using a polyclonal antibody against iNOS at a dilution of 1:2000. Data are representative of at least 3 independent experiments giving similar results. (B). Cells were taken for RNA extraction and subjected to quantitative PCR analysis of rat iNOS and 18 S RNA. ΔΔCt values were calculated and results are expressed as % of maximal IL-1β response and are means±S.D (n=3). • (C) Cells were transfected with the rat iNOS promoter construct plus a plasmid coding for the Renilla luciferase. After transfection, cells were stimulated with vehicle (−), IL-1β (1 nM), or IL-1β plus 10 μM of AVX001. iNOS promoter activity was calculated and results are expressed as relative luciferase units (RLU) and are means±S.D. (n=3).
(§4) To see whether this effect is due to altered gene transcription of iNOS, luciferase reporter gene assays were performed to measure iNOS promoter activity. A 4.5 kb fragment of the rat iNOS promoter was kindly provided by Dr. K. F. Beck (pharmazentrum frankfurt).

[4] = system: mesangial cells; assay: [3H]thymidine incorporation in mesangial cells (proliferation); assay type: cell-based, rat; conditions: 24 h; ATP 100 μM, insuline 100 ng/ml or IGF 50 ng/ml, FIGS. 5A and 5B
Method: Quiescent cells were stimulated for 24 h with vehicle (DMEM), or 100 μM of ATP in the absence (−) or presence of the indicated concentrations of AVX001 or AVX002, in the presence of [^3H]thymidine. • (B) Cells were stimulated for 24 h with insuline (100 ng/ml) or IGF (50 ng/ml) in the absence (−) or presence of 10 μM of AVX001 or AVX002, in the presence of [^3H]thymidine. Thymidine incorporated into DNA was determined and results are expressed as % of control and are means±S.D. (n=3). Glomerulonephritis is characterized in a first early phase by increased mesangial apoptosis which in a second phase is replaced by an opposite event, i.e. hyperproliferation of mesangial cells. Many previous studies have shown that quiescent mesangial cells in culture can re-enter the cell cycle when exposed to various growth factors, including PDGF, insulin, insulin-like growth factor (IGF), or extracellular nucleotides such as ATP and UTP. […] In the presence of either AKH217 or AVX002, agonist-stimulated [^3H]thymidine incorporation is reduced (FIGS. 5A and 5B). Similar data were also obtained when cells were stimulated with PDGF.

[5] = system: rat renal mesangial cells; assay: cytokine-stimulated NO formation in mesangial cells (Griess Reaction assay); assay type: cell-based; conditions: IL-1β (1 nM), FIG. 3
Method: Quiescent cells were stimulated with either DMEM (−), IL-1β (1 nM; +), in the absence or presence of the indicated concentrations of AKH-217, AVX002, or AACOCF3. Supernatants were collected and taken for nitric oxide (NO) quantification by using a Griess Reaction assay. Data are expressed as μM of NO in the supernatant and are means±S.D. (n=3).
as §4

[6] = system: IIA-sPLA2 mRNA; assay: IIA-sPLA2 mRNA expression, quantitative PCR; assay type: cell-based, rat; conditions: mesangial cells, IL-1β (1 nM), FIG. 2B
Method: as §1, §2

[7] = system: phospho-p65 (NFκB); assay: NFκB activation, Western blot of phospho-p65; assay type: cell-based, rat; conditions: IL-1β (2 nM) 30 min, 10 μM compound pretreated 2 h, FIG. 6
Method: Quiescent cells were stimulated for 30 min with either vehicle (DMEM), or IL-1β (2 nM) in the absence (−) or presence (+) of AVX001 or AVX002 (10 μM, pretreated 2 h). Thereafter, cell lysates were separated by SDS-PAGE and subjected to a Western blot analysis using a polyclonal antibody against phospho-p65 (NFκB) (upper panel), HuR as a loading control (middle panel), and IκB (lower panel). Data in FIG. 6A show duplicates of one representative experiments. FIGS. 6B and C show the densitometric evaluation of NFκB and IκB bands.
NFκB activation was measured by Western blot analyses by detecting the amount of phospho-p65 which represents the active transcription factor subunit.

[8] = system: rat iNOS promoter; assay: iNOS promoter activity, luciferase reporter gene assay; assay type: cell-based; conditions: IL-1β (1 nM), 10 μM compound, FIG. 4C
Method: as §3, §4

Structure (SMILES) | IIA-sPLA2 protein expression and secretion [1] | IL-1β-stimulated sPLA2 promoter activity [2] | protein expression of iNOS induced by IL-1β [3] | agonist-stimulated [3H]thymidine incorporation [4] | IL-1β-stimulated NO formation [5] | IIA-sPLA2 mRNA expression [6] | IL-1β-induced increase of phospho-p65 [7] | IL-1β-stimulated iNOS promoter activity [8]
CC/C=C\C/C=C\C/C=C\C/C=C\CC/C=C/CSCC(=O)C(F)(F)F [AKH-217] | reduce | completely reduced | down-regulated | reduced | reduced in a dose-dependent manner | reduce | reduced | completely lost
CC/C=C\C/C=C\C/C=C\C/C=C\C/C=C\CCSCC(=O)C(F)(F)F [AVX002] | – | – | down-regulated | reduced | reduced in a dose-dependent manner | – | – | –
